Experimental data as given in ChEMBL document CHEMBL3611986, “Reversal of P-gp and BCRP-mediated MDR by tariquidar derivatives” (Eur J Med Chem, 2015).
The source made the active and inactive calls. The calls are words filed in the database; no cut-off is given here.

Experiments:
HCT-116 = test: Cytotoxicity against human HCT116 cells assessed as cell viability after 48 hrs by MTT assay; type: cell-based; settings: HCT-116, 48 h
SW-620 [1] = test: Cytotoxicity against human SW620 cells assessed as cell viability after 48 hrs by MTT assay; type: cell-based; settings: SW-620, 48 h
[2] = Cytotoxicity against human SW620/AD300 cells assessed as cell viability after 48 hrs by MTT assay; type: cell-based; settings: SW-620, 48 h
[3] = Cytotoxicity against human CCD-18Co cells assessed as cell viability after 48 hrs by MTT assay; type: cell-based
[4] = Cytotoxicity against human HFE cells assessed as cell viability after 72 hrs by MTT assay; type: cell-based
Hepatocyte = test: Cytotoxicity against rat hepatocytes assessed as cell viability after 72 hrs by MTT assay; type: cell-based; settings: for IC50: Rattus norvegicus, Hepatocyte
[5] = target: T1, ATP-dependent translocase ABCB1 (Homo sapiens, UniProt P08183); test: Inhibition of p-glycoprotein-mediated rhodamine-123 efflux in human K562/p-gp cells at 0.5 uM after 1 hr by flow cytometry relative to tariquidar; type: cell-based; settings: 1 h, 0.5 µM
T1 sequence (P08183 whole entry): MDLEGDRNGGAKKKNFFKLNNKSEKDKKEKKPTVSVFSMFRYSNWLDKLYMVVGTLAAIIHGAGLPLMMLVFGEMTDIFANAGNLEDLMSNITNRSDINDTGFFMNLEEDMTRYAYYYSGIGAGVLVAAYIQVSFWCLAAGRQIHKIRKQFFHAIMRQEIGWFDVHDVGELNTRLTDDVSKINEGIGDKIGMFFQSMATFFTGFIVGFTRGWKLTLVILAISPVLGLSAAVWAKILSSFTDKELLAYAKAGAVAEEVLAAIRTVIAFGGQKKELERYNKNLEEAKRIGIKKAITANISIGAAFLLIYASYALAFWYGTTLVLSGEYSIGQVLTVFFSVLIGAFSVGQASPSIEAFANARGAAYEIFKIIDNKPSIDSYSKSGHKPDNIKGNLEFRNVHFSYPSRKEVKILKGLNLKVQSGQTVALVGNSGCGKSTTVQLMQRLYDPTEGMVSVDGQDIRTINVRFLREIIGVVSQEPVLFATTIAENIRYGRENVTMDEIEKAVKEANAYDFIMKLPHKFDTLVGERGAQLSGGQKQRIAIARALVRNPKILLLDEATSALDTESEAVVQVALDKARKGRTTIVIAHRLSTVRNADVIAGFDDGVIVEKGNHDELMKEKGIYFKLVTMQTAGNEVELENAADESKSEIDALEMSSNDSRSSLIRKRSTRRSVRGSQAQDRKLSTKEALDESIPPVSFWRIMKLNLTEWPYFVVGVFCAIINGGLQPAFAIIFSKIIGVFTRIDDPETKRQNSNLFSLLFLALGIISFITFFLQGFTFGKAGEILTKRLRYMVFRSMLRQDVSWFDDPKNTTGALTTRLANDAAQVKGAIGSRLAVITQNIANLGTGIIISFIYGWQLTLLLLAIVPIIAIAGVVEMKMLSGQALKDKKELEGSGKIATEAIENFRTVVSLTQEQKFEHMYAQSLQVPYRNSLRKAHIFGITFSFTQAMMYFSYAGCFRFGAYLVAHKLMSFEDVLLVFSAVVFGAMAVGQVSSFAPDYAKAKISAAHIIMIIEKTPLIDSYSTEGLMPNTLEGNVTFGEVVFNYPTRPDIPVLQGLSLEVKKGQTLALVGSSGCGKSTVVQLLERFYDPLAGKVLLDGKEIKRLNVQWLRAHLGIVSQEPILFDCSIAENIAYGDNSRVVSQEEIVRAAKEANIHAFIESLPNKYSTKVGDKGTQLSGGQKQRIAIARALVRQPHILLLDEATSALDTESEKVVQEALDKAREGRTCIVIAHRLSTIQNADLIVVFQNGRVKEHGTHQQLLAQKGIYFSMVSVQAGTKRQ

[6] = target: T1, ATP-dependent translocase ABCB1; test: Inhibition of p-glycoprotein-mediated rhodamine-123 efflux in human K562/p-gp cells after 1 hr by flow cytometry; type: cell-based
K562 [7] = test: Effect on rhodamine-123 efflux in wild type human K562 cells at 0.5 uM after 1 hr by flow cytometry; type: ADME, cell-based; settings: k562, 1 h
[8] = target: T1, ATP-dependent translocase ABCB1; test: Inhibition of p-glycoprotein-mediated doxorubicin efflux in human K562/p-gp cells at 1 uM after 1 hr by flow cytometry; type: cell-based
[9] = target: Multidrug resistance-associated protein 1 (Homo sapiens, UniProt P33527); test: Inhibition of MRP1 (unknown origin)-mediated calcein-AM efflux expressed in HEK293/MRP1 cells at 0.5 uM after 1 hr by flow cytometry; type: cell-based; settings: hek293/mrp1, 1 h
Chain of Multidrug resistance-associated protein 1 (P33527 whole entry): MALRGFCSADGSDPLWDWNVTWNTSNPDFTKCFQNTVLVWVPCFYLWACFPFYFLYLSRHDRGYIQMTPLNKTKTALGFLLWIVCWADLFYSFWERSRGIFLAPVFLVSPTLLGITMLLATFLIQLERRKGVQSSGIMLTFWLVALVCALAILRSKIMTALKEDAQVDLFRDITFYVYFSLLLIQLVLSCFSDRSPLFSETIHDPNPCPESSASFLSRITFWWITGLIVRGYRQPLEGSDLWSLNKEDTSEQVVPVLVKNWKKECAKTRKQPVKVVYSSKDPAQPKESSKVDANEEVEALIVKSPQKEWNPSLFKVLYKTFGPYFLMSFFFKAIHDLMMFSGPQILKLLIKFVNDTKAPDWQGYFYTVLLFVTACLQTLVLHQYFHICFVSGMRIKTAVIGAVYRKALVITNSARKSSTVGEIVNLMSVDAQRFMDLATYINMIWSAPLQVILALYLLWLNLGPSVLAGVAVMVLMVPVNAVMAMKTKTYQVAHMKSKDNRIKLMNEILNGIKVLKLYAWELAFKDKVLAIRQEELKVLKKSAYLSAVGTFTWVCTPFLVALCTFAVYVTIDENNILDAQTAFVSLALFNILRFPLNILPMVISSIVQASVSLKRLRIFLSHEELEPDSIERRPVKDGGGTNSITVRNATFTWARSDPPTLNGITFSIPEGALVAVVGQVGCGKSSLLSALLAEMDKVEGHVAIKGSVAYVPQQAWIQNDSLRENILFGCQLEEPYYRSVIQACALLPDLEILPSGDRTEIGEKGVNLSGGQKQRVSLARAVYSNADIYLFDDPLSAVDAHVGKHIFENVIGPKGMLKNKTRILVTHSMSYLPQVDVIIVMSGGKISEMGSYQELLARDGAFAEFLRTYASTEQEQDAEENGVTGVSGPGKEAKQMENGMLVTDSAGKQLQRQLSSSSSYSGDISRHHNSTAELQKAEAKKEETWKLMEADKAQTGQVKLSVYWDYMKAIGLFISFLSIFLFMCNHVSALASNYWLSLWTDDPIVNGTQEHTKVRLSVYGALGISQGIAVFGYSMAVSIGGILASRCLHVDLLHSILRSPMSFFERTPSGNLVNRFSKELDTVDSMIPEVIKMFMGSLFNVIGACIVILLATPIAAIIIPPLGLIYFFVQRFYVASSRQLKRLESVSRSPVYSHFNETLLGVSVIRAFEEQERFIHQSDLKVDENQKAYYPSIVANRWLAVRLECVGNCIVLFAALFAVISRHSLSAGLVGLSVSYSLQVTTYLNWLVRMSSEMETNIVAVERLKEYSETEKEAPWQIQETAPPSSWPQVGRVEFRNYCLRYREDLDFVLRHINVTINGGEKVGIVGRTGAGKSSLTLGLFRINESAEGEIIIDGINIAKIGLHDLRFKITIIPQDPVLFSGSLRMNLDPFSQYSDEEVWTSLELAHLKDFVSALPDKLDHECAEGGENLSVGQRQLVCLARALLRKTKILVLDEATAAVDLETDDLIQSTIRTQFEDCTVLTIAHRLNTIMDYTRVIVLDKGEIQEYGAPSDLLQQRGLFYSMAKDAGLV

K562 [10] = test: Induction of UIC2 antibody binding to p-glycoprotein in human K562 cells at 0.5 uM preincubated for 10 mins followed by antibody addition measured after 45 mins by flow cytometry relative to tariquidar; type: cell-based
[11] = target: T2, Broad substrate specificity ATP-binding cassette transporter ABCG2 (Homo sapiens, UniProt Q9UNQ0); test: Induction of 5D3 antibody binding to BCRP in human K562 cells at 0.5 uM preincubated for 10 mins followed by antibody addition measured after 45 mins by flow cytometry relative to tariquidar; type: cell-based; settings: k562, 0.75 h
T2 sequence (Q9UNQ0 whole entry): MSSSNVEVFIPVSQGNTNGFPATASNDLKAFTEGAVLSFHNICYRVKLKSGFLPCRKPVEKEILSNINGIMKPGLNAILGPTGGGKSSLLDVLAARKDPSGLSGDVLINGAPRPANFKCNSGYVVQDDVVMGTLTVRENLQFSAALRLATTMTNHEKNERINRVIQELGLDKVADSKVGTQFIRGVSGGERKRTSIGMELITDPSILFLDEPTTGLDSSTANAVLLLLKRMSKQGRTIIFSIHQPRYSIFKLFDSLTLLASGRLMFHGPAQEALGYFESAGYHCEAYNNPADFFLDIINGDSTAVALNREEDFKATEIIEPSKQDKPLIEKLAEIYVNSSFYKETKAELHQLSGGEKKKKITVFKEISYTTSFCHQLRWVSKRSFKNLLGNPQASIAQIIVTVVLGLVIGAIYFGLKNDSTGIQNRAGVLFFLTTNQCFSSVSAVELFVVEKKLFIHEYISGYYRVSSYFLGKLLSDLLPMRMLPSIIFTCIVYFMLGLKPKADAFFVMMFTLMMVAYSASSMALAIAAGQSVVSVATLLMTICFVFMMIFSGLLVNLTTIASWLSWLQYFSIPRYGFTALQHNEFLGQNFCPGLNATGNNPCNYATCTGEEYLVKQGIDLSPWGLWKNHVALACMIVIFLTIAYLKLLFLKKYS

[12] = Potentiation of paclitaxel-induced cytotoxicity against human LCC6 cells at 200 nM after 72 hrs by SRB assay relative to control; type: functional
[13] = target: T1, ATP-dependent translocase ABCB1; test: Inhibition of p-glycoprotein in human LCC6/MDR cells assessed as increase of paclitaxel-induced cytotoxicity at 200 nM after 72 hrs by SRB assay relative to control; type: cell-based; settings: 0.2 µM
MCF7 [14] = test: Potentiation of mitoxantrone-induced cytotoxicity against human MCF7 cells at 200 nM after 72 hrs by SRB assay relative to control; type: functional
[15] = target: T2, Broad substrate specificity ATP-binding cassette transporter ABCG2; test: Inhibition of BCRP in human MCF-7 FLV1000 cells assessed as increase of mitoxantrone-induced cytotoxicity at 200 nM after 72 hrs by SRB assay relative to control; type: cell-based; settings: 0.2 µM
HepG2 [16] = test: Potentiation of doxorubicin-induced cytotoxicity against human HepG2 cells at 200 nM after 72 hrs by SRB assay relative to control; type: functional
[17] = target: T1, ATP-dependent translocase ABCB1; test: Inhibition of p-glycoprotein in human HepG2 cells assessed as increase of doxorubicin-induced cytotoxicity at 200 nM after 72 hrs by SRB assay relative to control; type: cell-based; settings: hepg2, 72 h, 0.2 µM
SW-620 [18] = test: Potentiation of doxorubicin-induced cytotoxicity against human SW620 cells at 200 nM after 72 hrs by SRB assay relative to control; type: functional
[19] = target: T1, ATP-dependent translocase ABCB1; test: Inhibition of p-glycoprotein in human SW620/AD300 cells assessed as increase of doxorubicin-induced cytotoxicity at 200 nM after 72 hrs by SRB assay relative to control; type: cell-based; settings: sw-620, 72 h, 0.2 µM
SW-620 [20] = test: Cytotoxicity against human SW620 cells at 200 nM after 72 hrs by SRB assay; type: cell-based; settings: sw-620, 72 h, 0.2 µM
[21] = Cytotoxicity against human SW620/AD300 cells expressing p-glycoprotein at 200 nM after 72 hrs by SRB assay; type: cell-based; settings: sw-620, 72 h, 0.2 µM
HepG2 [22] = test: Cytotoxicity against human HepG2 cells at 200 nM after 72 hrs by SRB assay; type: cell-based; settings: hepg2, 72 h, 0.2 µM
HepG2 [23] = test: Cytotoxicity against human HepG2 cells expressing p-glycoprotein at 200 nM after 72 hrs by SRB assay; type: cell-based; settings: hepg2, 72 h, 0.2 µM
MCF7 [24] = test: Cytotoxicity against human MCF7 cells at 200 nM after 72 hrs by SRB assay; type: cell-based; settings: mcf7, 72 h, 0.2 µM
[25] = Cytotoxicity against human MCF-7 FLV1000 cells expressing BCRP at 200 nM after 72 hrs by SRB assay; type: ADME, cell-based; settings: mcf-7 flv1000, 72 h, 0.2 µM
[26] = Cytotoxicity against human LCC6 cells at 200 nM after 72 hrs by SRB assay; type: cell-based; settings: lcc6, 72 h, 0.2 µM
[27] = Cytotoxicity against human LCC6 cells expressing p-glycoprotein at 200 nM after 72 hrs by SRB assay; type: cell-based; settings: lcc6, 72 h, 0.2 µM
Homo sapiens = organism: Homo sapiens; test: Inhibition of p-glycoprotein (unknown origin) expressed in High five insect cell membranes assessed as ATP hydrolysis after 20 mins by colorimetric ATPase assay

Row | inhibition (INH) [9] | SMILES | IC50 (HCT-116) | IC50 (SW-620 [1]) | IC50 [2] | IC50 [3] | IC50 [4] | IC50 (Hepatocyte) | further results
1 | Not Active | COc1cc2c(cc1OC)CN(CCc1ccc(NC(=O)c3ccccc3N(S(=O)(=O)c3ccccc3)S(=O)(=O)c3ccccc3)cc1)CC2 | > 100 µM | > 100 µM | > 100 µM | > 100 µM | > 5 µM |  | Activity (Hepatocyte; rat, hepatocytes): Non-toxic; inhibition (INH) [5]: Active; inhibition (INH) [6]: Dose-dependent effect; Activity (K562 [7]): Non-toxic; inhibition (INH) [8]: Active
2 | Not Active | COc1cc2c(cc1OC)CN(CCc1ccc(NC(=O)c3ccccc3NS(=O)(=O)c3cccc4c(N(C)C)cccc34)cc1)CC2 | > 100 µM | > 100 µM | > 100 µM | > 100 µM | > 100 µM |  | 
3 | Not Active | COc1cc2c(cc1OC)CN(CCc1ccc(NC(=O)c3ccccc3NS(=O)(=O)c3ccc(C)cc3)cc1)CC2 | > 100 µM | > 100 µM | > 100 µM | > 100 µM | > 100 µM |  | Activity (K562 [10]): inactive; Activity [11]: Not Active
4 | Not Active | COc1cc2c(cc1OC)CN(CCc1ccc(NC(=O)c3cc(OC)c(OC)cc3NC(=O)c3cnc4ccccc4c3)cc1)CC2 [TARIQUIDAR] | 12.5 µM | 25 µM | 25 µM | 25 µM | 1.28 µM | 25 µM | fold change (FC) [12]: 1.1; fold change (FC) [13]: 1.9; fold change (FC) (MCF7 [14]): 0.8; fold change (FC) [15]: 3.7; fold change (FC) (HepG2 [16]): 0.23; fold change (FC) [17]: 0.32; fold change (FC) (SW-620 [18]): 0.57; fold change (FC) [19]: 1.85; Activity (SW-620 [20]): Non-toxic; Activity [21]: Non-toxic; Activity (HepG2 [22]): Non-toxic; Activity (HepG2 [23]): Non-toxic; Activity (MCF7 [24]): Non-toxic; Activity [25]: Non-toxic; Activity [26]: Non-toxic; Activity [27]: Non-toxic
5 | Not Active | COc1cc2c(cc1OC)CN(CCc1ccc(NC(=O)c3ccccc3NS(=O)(=O)c3ccc(F)cc3)cc1)CC2 | > 100 µM | > 100 µM | > 100 µM | > 100 µM | > 100 µM |  | 
6 | Not Active | COc1cc2c(cc1OC)CN(CCc1ccc(NC(=O)c3ccccc3NS(=O)(=O)c3cc(Cl)ccc3Cl)cc1)CC2 | 25 µM | > 100 µM | > 100 µM | > 100 µM | > 100 µM |  | 
7 | Not Active | CCCCCCCCCCCC(=O)Nc1ccccc1C(=O)Nc1ccc(CCN2CCc3cc(OC)c(OC)cc3C2)cc1 | > 100 µM | > 100 µM | > 100 µM | > 100 µM | > 100 µM |  | 
8 | Not Active | COc1cc2c(cc1OC)CN(CCc1ccc(NC(=O)c3cc(OC)c(OC)cc3NS(=O)(=O)c3ccc(C(C)(C)C)cc3)cc1)CC2 | > 100 µM | > 100 µM | > 100 µM | > 100 µM | > 5 µM |  | inhibition (INH) [5]: Active; inhibition (INH) [6]: Dose-dependent effect; Activity (K562 [7]): Non-toxic; fold change (FC) [12]: 1; fold change (FC) [13]: 21; Activity [26]: Non-toxic; Activity [27]: Non-toxic; Activity (K562 [10]): 70.7%; inhibition (Homo sapiens): Dose-dependent effect
9 | Not Active | COc1cc2c(cc1OC)CN(CCc1ccc(NC(=O)c3ccccc3NS(=O)(=O)c3c(C)cc(C)cc3C)cc1)CC2 | > 100 µM | > 100 µM | > 100 µM | > 100 µM | > 100 µM | 100 µM | 
10 |  | COc1cc2c(cc1OC)CN(CCc1ccc(NC(=O)c3ccccc3NS(=O)(=O)c3ccc(Cl)cc3)cc1)CC2 | > 100 µM | > 100 µM | > 100 µM | > 100 µM | > 5 µM |  | 
11 | Not Active | COc1ccc(S(=O)(=O)Nc2ccccc2C(=O)Nc2ccc(CCN3CCc4cc(OC)c(OC)cc4C3)cc2)cc1 | > 100 µM | > 100 µM | > 100 µM | > 100 µM | > 100 µM |  | 
12 | Not Active | COc1cc2c(cc1OC)CN(CCc1ccc(NC(=O)c3cc(OC)c(OC)cc3NS(=O)(=O)c3ccc(C)cc3)cc1)CC2 | > 100 µM | > 100 µM | > 100 µM | > 100 µM | > 100 µM | 100 µM | 
13 | Not Active | COc1cc2c(cc1OC)CN(CCc1ccc(NC(=O)c3ccccc3NS(=O)(=O)c3ccc(C(F)(F)F)cc3)cc1)CC2 | 25 µM | > 100 µM | > 100 µM | > 100 µM | > 100 µM | 50 µM | 
14 | Not Active | COc1cc2c(cc1OC)CN(CCc1ccc(NC(=O)c3ccccc3NC(=O)OCC3c4ccccc4-c4ccccc43)cc1)CC2 | > 100 µM | > 100 µM | > 100 µM | > 100 µM | > 100 µM |  | 
15 | Not Active | CCCS(=O)(=O)Nc1ccccc1C(=O)Nc1ccc(CCN2CCc3cc(OC)c(OC)cc3C2)cc1 | > 100 µM | > 100 µM | > 100 µM | > 100 µM | > 100 µM |  | 
16 | Not Active | COc1cc2c(cc1OC)CN(CCc1ccc(NC(=O)c3cc(OC)c(OC)cc3NS(=O)(=O)c3ccc(C(F)(F)F)cc3)cc1)CC2 | 25 µM | > 100 µM | > 100 µM | > 100 µM | > 100 µM | 50 µM | 
17 | Not Active | COc1cc2c(cc1OC)CN(CCc1ccc(NC(=O)c3ccccc3NS(=O)(=O)c3ccccc3C(F)(F)F)cc1)CC2 | > 100 µM | > 100 µM | > 100 µM | > 100 µM | > 100 µM | 100 µM | 
18 | Not Active | COc1cc2c(cc1OC)CN(CCc1ccc(NC(=O)c3ccccc3NS(=O)(=O)c3ccc(NC(C)=O)cc3)cc1)CC2 | > 100 µM | > 100 µM | > 100 µM | > 100 µM | > 100 µM |  | 
19 | Not Active | COc1cc2c(cc1OC)CN(CCc1ccc(NC(=O)c3ccccc3NS(=O)(=O)c3ccccc3F)cc1)CC2 | > 100 µM | > 100 µM | > 100 µM | > 100 µM | > 100 µM | 100 µM | 
